Data published in PMC2918394 (Journal of medicinal chemistry, 2010).

What was measured:
SARS-CoV PLpro = SARS-CoV PLpro (Severe acute respiratory syndrome coronavirus, UniProt P0C6X7); format: biochemical
SARS-CoV = format: cell-based; settings: SARS-CoV infected Vero E6 cells

COc1ccccc1CNC(=O)C1CCN([C@H](C)c2cccc3ccccc23)CC1 [Compound 15a, 1-[(R)-1-(1-Naphthyl)ethyl]-4-(2-methoxybenzylamino)carbonylpiperidine]
reduction in potency over 15b and 15c (SARS-CoV PLpro): 3 fold

COc1cccc(CNC(=O)C2CCN([C@@H](C)c3ccc4ccccc4c3)CC2)c1 [Compound 15f, 1-[(S)-1-(2-Naphthyl)ethyl]-4-(3-methoxybenzylamino)carbonylpiperidine]
antiviral activity (in words) (SARS-CoV): no antiviral activity | more potent than the 2(R)-derivative 15d (SARS-CoV PLpro): 2 fold

COc1ccc(CNC(=O)C2CCN([C@H](C)c3cccc4ccccc34)CC2)cc1 [Compound 15c, 1-[(R)-1-(1-Naphthyl)ethyl]-4-(4-methoxybenzylamino)carbonylpiperidine]
potency enhancement over 3 (SARS-CoV PLpro): > 170 fold

COc1ccc(CNC(=O)C2CCN(Cc3cccc4ccccc34)CC2)cc1 [Compound 3]
antiviral activity (in words) (SARS-CoV): does not show any antiviral activity

CC(C)(c1cccc2ccccc12)N1CCC(C(=O)NCc2ccc3c(c2)OCO3)CC1 [Compound 15k, 1-[1-Methyl-1-(1-naphthyl)ethyl]-4-[3,4-(methylenedioxy)benzylamino]carbonylpiperidine]
PLpro inhibitory activity (in words) (SARS-CoV PLpro): inactive

COc1ccccc1CNC(=O)C1CCN(Cc2cccc3ccccc23)CC1 [Compound 7a, 1-[(1-Naphthyl)methyl]-4-[(2-methoxybenzylamino)carbonyl]piperidine]
PLpro inhibitory activity (in words) (SARS-CoV PLpro): very poor inhibitory activity

1-[1-(2-Naphthyl)ethyl]-4-(4-methoxybenzylamino)carbonylpiperazine [Compound 20]
PLpro inhibitory activity (in words) (SARS-CoV PLpro): no activity against PLpro
